The text below walks through data of patent publication US6552080B1, “Fungicidal compounds having a fluorovinyl-or fluoropropenyl-oxyphenyloxime moiety and process for the preparation thereof” (Korea Research Institute of Chemical Technology, priority 1999, dated 2003).

One experiment has as its system Erysiphae graminis. The experiment can be described thus: Fungicidal activity against Barley Powdery Mildew (BPM) disease. It counts as in vivo.
The test system of the next experiment is Puccinia recondita. Nature of the experiment: Fungicidal activity against Wheat Leaf Rust (WLR) disease. It counts as in vivo.
The test system of a further experiment is Phytophthora infestans. It counts as in vivo.
For a further experiment, the system named is Botrytis cinerae. The experiment can be described thus: Fungicidal activity against Cucumber Gray Mold Rot (CGM) disease. Format: in vivo. The following applies: 50 ppm.
For a further experiment, the system named is Rhizoctonia solani AG-1. The experiment can be described thus: Fungicidal activity against Rice Sheath Blight (RSB) disease.
For experiment [1], the system named is Pyricularia oryzae Carvara KA301. It counts as in vivo.

Where two headings read alike, the source gives them in different places.

Consider `CON=C(C(=O)OC)c1ccccc1CON=C(C)c1cccc(OC(F)=C(c2cccc(C(F)(F)F)c2)C(F)(F)F)c1` [Compound 188], for which the “Fungicidal Activities BPM (C.V.)” value in the experiment on Erysiphae graminis (2 ppm) is 91%; in the experiment with Erysiphae graminis (50 ppm), 100%. In addition, the “Fungicidal Activities WLR (C.V.)” value with Puccinia recondita (2 ppm) stood at 66%; with Puccinia recondita (50 ppm), 95%. For the same compound, the entries for the “Fungicidal Activities TLB (C.V.)” value in the experiment on Phytophthora infestans (2 ppm) and in the experiment on Phytophthora infestans (50 ppm) were 0% and 40%, respectively. Also, the “Fungicidal Activities CGM (C.V.)” value with Botrytis cinerae is on record as 0%. Further, the “Fungicidal Activities RSB (C.V.)” value is 0% in the experiment on Rhizoctonia solani AG-1 (2 ppm) and 55% with Rhizoctonia solani AG-1 (50 ppm). For the same compound, the “Fungicidal Activities RCV (C.V.)” value in experiment [1] (2 ppm) was 76%; in experiment [1] (50 ppm), 71%.

For the compound `CON=C(C(=O)OC)c1ccccc1CON=C(C)c1cccc(OC(F)=C(c2ccc3c(c2)OCO3)C(F)(F)F)c1` [Compound 190], the “Fungicidal Activities BPM (C.V.)” value with Erysiphae graminis (2 ppm) came out at 91%; in the experiment with Erysiphae graminis (50 ppm), 100%. In addition, the figures for the “Fungicidal Activities WLR (C.V.)” value with Puccinia recondita (2 ppm) and with Puccinia recondita (50 ppm) were 93% and 100%, respectively. The “Fungicidal Activities TLB (C.V.)” value in the experiment on Phytophthora infestans (2 ppm) and with Phytophthora infestans (50 ppm) was 0% throughout. For the same compound, the “Fungicidal Activities CGM (C.V.)” value in the experiment on Botrytis cinerae is given as 0%. Moreover, the “Fungicidal Activities RSB (C.V.)” value is 15% in the experiment with Rhizoctonia solani AG-1 (2 ppm) and 65% in the experiment on Rhizoctonia solani AG-1 (50 ppm). In addition, the “Fungicidal Activities RCV (C.V.)” value in experiment [1] (2 ppm) is 66%; in experiment [1] (50 ppm), 93%.

On to `CNC(=O)C(=NOC)c1ccccc1CON=C(C)c1cccc(OC(F)=C(c2ccccc2)C(F)(F)F)c1` [Compound 191], for which the “Fungicidal Activities BPM (C.V.)” value in the experiment on Erysiphae graminis (2 ppm) and with Erysiphae graminis (50 ppm) was 100% throughout. The entries for the “Fungicidal Activities WLR (C.V.)” value with Puccinia recondita (2 ppm) and in the experiment with Puccinia recondita (50 ppm) were 99% and 100%, respectively. In addition, the “Fungicidal Activities TLB (C.V.)” value is reported as 0% in the experiment with Phytophthora infestans (2 ppm) and 60% in the experiment on Phytophthora infestans (50 ppm). The “Fungicidal Activities CGM (C.V.)” value in the experiment on Botrytis cinerae amounted to 68%. The entries for the “Fungicidal Activities RSB (C.V.)” value with Rhizoctonia solani AG-1 (2 ppm) and in the experiment on Rhizoctonia solani AG-1 (50 ppm) were 35% and 75%, respectively. Moreover, the “Fungicidal Activities RCV (C.V.)” value in experiment [1] (2 ppm) and in experiment [1] (50 ppm) was 100% throughout.

With `CNC(=O)C(=NOC)c1ccccc1CON=C(C)c1cccc(OC(F)=C(c2ccc(C)cc2)C(F)(F)F)c1` [Compound 192], the “Fungicidal Activities BPM (C.V.)” value in the experiment with Erysiphae graminis (2 ppm) and in the experiment on Erysiphae graminis (50 ppm) was 100% throughout. Further, the figures for the “Fungicidal Activities WLR (C.V.)” value in the experiment with Puccinia recondita (2 ppm) and in the experiment with Puccinia recondita (50 ppm) were 98% and 100%, respectively. Besides, the “Fungicidal Activities TLB (C.V.)” value stood at 37% with Phytophthora infestans (2 ppm) and 40% with Phytophthora infestans (50 ppm). In the experiment with Botrytis cinerae, the “Fungicidal Activities CGM (C.V.)” value is listed as 75%. The “Fungicidal Activities RSB (C.V.)” value is given as 40% in the experiment on Rhizoctonia solani AG-1 (2 ppm) and 100% in the experiment with Rhizoctonia solani AG-1 (50 ppm). Moreover, the “Fungicidal Activities RCV (C.V.)” value in experiment [1] (2 ppm) and in experiment [1] (50 ppm) was 100% throughout.

For the compound `CNC(=O)C(=NOC)c1ccccc1CON=C(C)c1cccc(OC(F)=C(c2ccc(C)c(C)c2)C(F)(F)F)c1` [Compound 193], the results for the “Fungicidal Activities BPM (C.V.)” value in the experiment with Erysiphae graminis (2 ppm) and with Erysiphae graminis (50 ppm) were 90% and 100%, respectively. In addition, the “Fungicidal Activities WLR (C.V.)” value in the experiment with Puccinia recondita (2 ppm) came out at 98%; in the experiment with Puccinia recondita (50 ppm), 100%. Moreover, the “Fungicidal Activities TLB (C.V.)” value with Phytophthora infestans (2 ppm) is 12%; with Phytophthora infestans (50 ppm) it was 40%. Moreover, in the experiment with Botrytis cinerae, the “Fungicidal Activities CGM (C.V.)” value turned out to be 75%. The results for the “Fungicidal Activities RSB (C.V.)” value in the experiment with Rhizoctonia solani AG-1 (2 ppm) and in the experiment on Rhizoctonia solani AG-1 (50 ppm) were 30% and 80%, respectively. Also, the “Fungicidal Activities RCV (C.V.)” value in experiment [1] (2 ppm) stood at 93%; in experiment [1] (50 ppm) it was 96%.

For the compound `CNC(=O)C(=NOC)c1ccccc1CON=C(C)c1cccc(OC(F)=C(c2cc(C)cc(C)c2)C(F)(F)F)c1` [Compound 194], the “Fungicidal Activities BPM (C.V.)” value is listed as 0% in the experiment on Erysiphae graminis (2 ppm) and 98% in the experiment on Erysiphae graminis (50 ppm). For the same compound, the “Fungicidal Activities WLR (C.V.)” value with Puccinia recondita (2 ppm) is recorded as 20%; in the experiment with Puccinia recondita (50 ppm) it was 98%. The “Fungicidal Activities TLB (C.V.)” value in the experiment with Phytophthora infestans (50 ppm) stood at 0%. The “Fungicidal Activities CGM (C.V.)” value with Botrytis cinerae came to 16%. For the same compound, the “Fungicidal Activities RSB (C.V.)” value in the experiment on Rhizoctonia solani AG-1 (50 ppm) worked out at 64%. Moreover, the entries for the “Fungicidal Activities RCV (C.V.)” value in experiment [1] (2 ppm) and in experiment [1] (50 ppm) were 95% and 100%, respectively.
